# In patent US20230080670A1, “METHODS AND COMPOSITIONS FOR TREATING TUMORS USING TRANSCRIPTION INHIBITION AND DNA DAMAGE” (ARIZONA BOARD OF REGENTS ON BEHALF OF THE UNIVERSITY OF …, priority 2019, published 2023):
# “Also recorded” adds a separate entry of the source.
# Key:
# A673 cells = experiment: MTT cell survival assay, A673 Ewing's sarcoma cell line; format: cell-based; details: 96 hours
# Experimental: It was tested whether the functional interaction of EWS or FUS with the fusion protein driving Ewing's sarcoma would make these cells exceptionally sensitive to transcription inhibitors.
# The DNA damage agent SN38 and the transcription inhibitor flavopiridol were titrated, and cell survival was measured after 96 hours using an MTT assay (see FIG. 3A).
# gammaH2Ax [1] = experiment: Western blot of gammaH2Ax DNA damage response, A673 cells; format: cell-based
# gammaH2Ax [2] = experiment: Western blot of gammaH2Ax DNA damage response, HEK293 cells; format: cell-based; details: flavopiridol added to SN38, 24 hours
# Experimental: All doses shown are in nanomolar, nM.
# Western blot analysis: Protein lysates concentrations were quantified using BCA Protein Assay (Pierce). 5-10 ug of protein sample was loaded onto 7.5% SDS-PAGE gels. Standard western blot protocols were followed. Blots were transferred at 500 mA, blocked in 5% nonfat dried milk in TBS-T, and incubated overnight with primary antibody at 4° C. Blots were washed in TBS-T, incubated in secondary antibody for 1 hour at room temperature, washed again in TBS-T, and imaged after the addition of SuperSignal™ West Pico PLUS Chemiluminescent substrate (Thermo Scientific). Western blots were imaged on the ChemiDoc.
# patients = details: therapeutic doses; cited from earlier work
Compound,"toxicity (cell survival, MTT assay) (A673 cells; 100 nM flavopiridol alone)","inhibition of the gamma H2Ax response to DNA damage (quantification of western blots) (gammaH2Ax [1]; A673 cells, 10 nM, 50 nM and 100 nM flavopiridol)","effect on phosphorylation of histone to gammaH2Ax (DNA damage response) (gammaH2Ax [1]; transcription inhibitor added to SN38, 24 hours, Ewing's sarcoma cell line)",effect on gammaH2Ax response to DNA damage (gammaH2Ax [2]),toxicity in patients (patients),"toxicity (cell survival, MTT assay) (A673 cells; 1.3 nM SN38 alone)","gammaH2Ax DNA damage response (gammaH2Ax [1]; SN38 for 24 hours without transcription inhibitor, Ewing's sarcoma cell line)"
CN1CC[C@H](c2c(O)cc(O)c3c(=O)cc(-c4ccccc4Cl)oc23)[C@H](O)C1 [flavopiridol],No toxicity,dose-dependent inhibition,prevented this event,does not prevent the normal cellular response to DNA damage; also recorded: had no such effect,significant toxicity,,
CCc1c2c(nc3ccc(O)cc13)-c1cc3c(c(=O)n1C2)COC(=O)[C@]3(O)CC [SN38],,,,,,No toxicity,standard DNA damage response
